Target: T1, Renin (Homo sapiens, UniProt P00797)
T1 sequence (P00797 whole entry): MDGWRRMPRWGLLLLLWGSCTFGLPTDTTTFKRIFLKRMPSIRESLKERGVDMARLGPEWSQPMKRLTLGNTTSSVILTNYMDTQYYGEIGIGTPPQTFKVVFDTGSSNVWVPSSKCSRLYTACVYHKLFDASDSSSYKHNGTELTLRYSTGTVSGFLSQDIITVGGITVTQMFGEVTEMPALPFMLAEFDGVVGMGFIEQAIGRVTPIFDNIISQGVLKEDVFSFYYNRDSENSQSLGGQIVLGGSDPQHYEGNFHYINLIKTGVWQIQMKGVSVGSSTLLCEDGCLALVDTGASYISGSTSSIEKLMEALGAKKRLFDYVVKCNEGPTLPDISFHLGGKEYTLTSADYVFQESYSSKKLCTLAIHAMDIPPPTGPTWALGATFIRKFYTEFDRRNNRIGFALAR
Experiment: Inhibitory Effects on Human Renin Activity Assay
Procedure: Briefly, human recombinant renin (from the kit) was incubated with the compound of the disclosure or buffer for 30 min at 37° C. before substrate addition. Fluorescence intensity was measured at 530 nm after an incubation of 15 min at 37° C. Data was analyzed by Prism and fitted into a sigmodal curve for IC50 calculation.

CO[C@H]1C[C@H](Nc2cc(C3CC3)cnc2C(=O)N(CC(C)C)C2CNCC(C(=O)N3CCOC(C)(C)C3)C2)C1 (stereo partly specified) [US20240327385, Example 8]
IC50: 1.6 nM
